“And” between values parts separate entries of the source, which are not always exact repeats. Equal entries are not always repeated.
Columns and labels:
PfCRT variant Y177A = assay: CQ uptake assay, oocytes expressing Y177A; assay type: cell-based, Plasmodium falciparum
Procedure: (§1) Site-directed mutagenesis of PfCRT^Dd2 was performed as described using the megaprimer method with overlap extension[21],[54]. The primer pairs used are listed in Supplementary Table 6. Please note that a codon-optimized and oocyte-adapted version of PfCRT^Dd2 was used[22] (Supplementary Fig. 16). The resulting DNA fragment was cloned into the SP64T expression vector and verified by sequencing.
(§2) Oocytes were obtained as described previously. Briefly, adult (>2 years old) female X. laevis frogs (NASCO) were anesthetized in a cooled solution of ethyl 3-amino benzoate methanesulfonate (0.1%, w/v), followed by a surgical removal of parts of the ovary. The ovary lobes were carefully dissected and small pieces of oocytes were incubated in Ca^2+-free ND96 buffer (96 mM NaCl, 2 mM KCl, 1 mM MgCl2 buffered with 5 mM HEPES/NaOH, pH 7.5) supplemented with collagenase D (0.1%, w/v; Roche), BSA (0.5%, w/v), and 9 mm Na2HPO4 at 18 °C for 14-16 h while gentle shaking. After incubation, the oocytes were carefully washed several times with ND96 buffer (96 mM NaCl, 2 mM KCl, 1.8 mM CaCl2, 1 mM MgCl2 buffered with 5 mM HEPES/NaOH, pH 7.5) supplemented with 100 mg l^−1 gentamycin). Defolliculated and healthy-looking stage V-VI oocytes were manually selected for RNA microinjection. The RNA was generated as following: The codon-optimized sequences of PfCRT variants were cloned into the pSP64T expression vector. After vector linearization using the restriction endonucleases BamHI or SalI (New England Biolabs), transcription was performed using the in vitro SP6 mMessage mMachine Kit (Ambion)[34]. The obtained RNA was kept at −80 °C and diluted with nuclease-free water to a concentration of 0.6 μg μl^−1. Precision-bore glass capillary tubes (3.5-inch glass capillaries; Drummond Scientific Co.) were pulled on a vertical puller (P-87 Flaming/Brown micropipette puller, Sutter Instrument Co.), graduated, and placed on a microinjector (Nanoject II Auto-Nanoliter Injector, Drummond Scientific Co.). 50 nl of nuclease-free water alone (control oocytes) or 50 nl of 0.6 μg μl^−1 RNA were injected under stereomicroscopic control. Injected oocytes were incubated for 46–72 h at 18 °C with twice-daily buffer changes before usage in experiments.
(§3) Drug uptake assays were performed as described previously[21],[22],[24],[34]. […] The direction of radio-labeled drug transport is here from the mostly acidic extracellular solution (pH 4.5 or 6.0, as indicated) into the oocyte cytosol (pH ∼ 7.2), which corresponds to the efflux of drug from the acidic digestive vacuole (pH 5.2) into the parasite cytoplasm (pH 7.2). The topology of PfCRT in the oolemma is such that both the N- and C-terminus face the extracellular milieu[3],[22]. In the parasite, the N- and C-terminus face the lumen of the digestive vacuole. CQ uptake kinetics were performed by incubating oocytes in ND96 buffer adjusted to a pH of 4.5, 5.0, 5.5, or 6.0 and supplemented with 50 nM [^3H]CQ and one of 7 different CQ concentrations (10 µM, 50 µM, 100 µM, 200 µM, 300 µM, 400 µM, 500 µM CQ). The reaction was stopped at the 60 min time point, which is in the linear uptake range[22],[34] (Supplementary Fig. 17). […] The radioactivity of each sample was measured using a liquid scintillation analyzer Tri-Carb 4910 TR (PerkinElmer). Oocytes that were injected with water instead of RNA were analyzed in parallel, representing the uptake of a drug by diffusion and/or endogenous permeation pathways. […]

PfCRT variant F268A = target: T1, PfCRT variant F268A (Plasmodium falciparum, UniProt Q9N623, A220S/F268A/I356T/K76T/M74I/N326S/N75E/Q271E/R371I); assay: CQ uptake assay, oocytes expressing F268A; assay type: cell-based
T1 sequence (Q9N623 1-424 M74I/N75E/K76T/A220S/F268A/Q271E/N326S/I356T/R371I): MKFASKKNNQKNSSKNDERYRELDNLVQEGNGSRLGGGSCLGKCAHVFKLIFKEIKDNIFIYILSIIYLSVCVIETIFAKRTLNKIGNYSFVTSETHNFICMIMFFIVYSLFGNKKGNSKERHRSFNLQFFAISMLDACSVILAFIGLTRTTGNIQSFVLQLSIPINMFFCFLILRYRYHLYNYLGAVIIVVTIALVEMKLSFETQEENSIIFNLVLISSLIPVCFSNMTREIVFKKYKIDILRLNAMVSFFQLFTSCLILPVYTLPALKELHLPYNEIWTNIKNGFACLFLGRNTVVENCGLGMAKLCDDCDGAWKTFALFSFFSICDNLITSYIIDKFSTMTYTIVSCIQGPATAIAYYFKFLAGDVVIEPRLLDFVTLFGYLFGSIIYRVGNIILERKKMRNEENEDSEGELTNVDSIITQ
Procedure: as §1, §2, §3

[1] = Y177A, 50 µM CQ, 1 h, mean ± SEM
[2] = pH 4.5, single replicates, Fig 1d left
[3] = pH 6.0, single replicates, Fig 1d left
[4] = F268A, 50 µM CQ, 1 h, mean ± SEM

## CCN(CC)CCCC(C)Nc1ccnc2cc(Cl)ccc12 (stereo not shown) [CQ, chloroquine]
PfCRT variant Y177A; [1]
  Activity at pH 4.5: 1.25 ± 0.21 pmol h-1 oocyte-1
  Activity at pH 6.0: 2.94 ± 0.26 pmol h-1 oocyte-1
PfCRT variant Y177A; Y177A, CQ transport at pH 4.5 / pH 6.0
  R-value: 0.44 ± 0.11
PfCRT variant Y177A; [2]
  Y177A transport activity pH 4.5: 0.79 pmol oocyte-1 h-1 and 1.73 pmol oocyte-1 h-1 and 1.60 pmol oocyte-1 h-1 and 0.87 pmol oocyte-1 h-1
PfCRT variant Y177A; [3]
  Y177A transport activity pH 6.0: 2.11 pmol oocyte-1 h-1 and 3.29 pmol oocyte-1 h-1 and 2.90 pmol oocyte-1 h-1 and 3.47 pmol oocyte-1 h-1
PfCRT variant F268A; [4]
  Activity at pH 4.5: 1.06 ± 0.19 pmol h-1 oocyte-1
  Activity at pH 6.0: 2.93 ± 0.28 pmol h-1 oocyte-1
PfCRT variant F268A; F268A, CQ transport at pH 4.5 / pH 6.0
  R-value: 0.40 ± 0.10
PfCRT variant F268A; [2]
  F268A transport activity pH 4.5: 0.75 pmol oocyte-1 h-1 and 1.37 pmol oocyte-1 h-1 and 0.63 pmol oocyte-1 h-1 and 1.50 pmol oocyte-1 h-1
PfCRT variant F268A; [3]
  F268A transport activity pH 6.0: 3.49 pmol oocyte-1 h-1 and 2.31 pmol oocyte-1 h-1 and 3.48 pmol oocyte-1 h-1 and 2.45 pmol oocyte-1 h-1
